Assay results from PMC8146980, “An Arrhythmic Mutation E7K Facilitates TRPM4 Channel Activation via Enhanced PIP2 Interaction” (Cells, 2021).

Assays:
TRPM4 (TRPM4b) [1] = biological target: T1, TRPM4 (TRPM4b) (Homo sapiens, UniProt Q8TD43); test: inside-out patch clamp, HEK293, reactivation after desensitization, Hill fit; type: cell-based; settings: read-out: apparent EC50; Kd (abstract)
T1 construct: full-length human TRPM4b CDS subcloned into pcI-neo, expressed in HEK293 cells (original clone in pcDNA4TO-Flag); homotetramer (known biology)
T1 sequence (Q8TD43 whole entry): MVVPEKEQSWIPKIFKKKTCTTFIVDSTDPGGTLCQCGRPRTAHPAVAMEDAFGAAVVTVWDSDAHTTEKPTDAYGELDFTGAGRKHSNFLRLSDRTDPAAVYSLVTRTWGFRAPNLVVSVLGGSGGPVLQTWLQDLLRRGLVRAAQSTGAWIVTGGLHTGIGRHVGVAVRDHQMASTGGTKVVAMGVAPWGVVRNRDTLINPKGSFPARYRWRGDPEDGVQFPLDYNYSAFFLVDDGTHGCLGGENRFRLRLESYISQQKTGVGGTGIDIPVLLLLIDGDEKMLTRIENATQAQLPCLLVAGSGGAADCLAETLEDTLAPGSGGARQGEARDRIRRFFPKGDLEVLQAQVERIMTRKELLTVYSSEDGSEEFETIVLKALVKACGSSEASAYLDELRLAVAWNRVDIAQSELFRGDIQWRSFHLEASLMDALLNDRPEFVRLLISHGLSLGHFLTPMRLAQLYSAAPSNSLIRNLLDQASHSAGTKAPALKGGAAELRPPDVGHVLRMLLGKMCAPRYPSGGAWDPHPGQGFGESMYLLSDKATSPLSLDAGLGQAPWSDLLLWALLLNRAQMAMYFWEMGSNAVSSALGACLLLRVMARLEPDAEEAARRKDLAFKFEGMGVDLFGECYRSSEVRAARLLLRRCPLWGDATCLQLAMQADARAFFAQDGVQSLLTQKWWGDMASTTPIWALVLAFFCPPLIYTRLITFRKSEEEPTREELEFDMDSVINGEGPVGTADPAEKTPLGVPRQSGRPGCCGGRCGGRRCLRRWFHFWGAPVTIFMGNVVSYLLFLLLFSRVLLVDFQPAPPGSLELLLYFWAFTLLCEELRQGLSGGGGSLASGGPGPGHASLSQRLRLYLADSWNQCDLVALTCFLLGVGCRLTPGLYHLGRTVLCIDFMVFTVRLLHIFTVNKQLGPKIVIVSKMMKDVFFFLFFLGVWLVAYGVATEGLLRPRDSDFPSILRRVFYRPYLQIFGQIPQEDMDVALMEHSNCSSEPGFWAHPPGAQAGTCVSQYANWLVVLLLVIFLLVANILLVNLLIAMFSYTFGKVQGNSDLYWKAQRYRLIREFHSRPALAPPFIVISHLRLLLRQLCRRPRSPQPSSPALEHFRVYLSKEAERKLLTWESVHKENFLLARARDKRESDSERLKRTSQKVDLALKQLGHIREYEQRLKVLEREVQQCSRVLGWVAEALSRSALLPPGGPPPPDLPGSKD

TRPM4 (TRPM4b) [2] = biological target: T2, TRPM4 (TRPM4b) (Homo sapiens, UniProt Q8TD43, E7K); test: as above; type: cell-based; settings: read-out: apparent EC50; Kd (abstract)
T2 construct: full-length human TRPM4b CDS subcloned into pcI-neo, expressed in HEK293 cells (original clone in pcDNA4TO-Flag); homotetramer (known biology)
T2 sequence (Q8TD43 whole entry E7K): as the sequence (Q8TD43 whole entry) above, with E7K counted along it

Question: How did the EC50 (TRPM4 (TRPM4b) [1]) turn out when `CCCCCCCC(=O)OC[C@H](COP(=O)(O)O[C@@H]1[C@H](O)[C@H](O)[C@@H](OP(=O)(O)O)[C@H](OP(=O)(O)O)[C@H]1O)OC(=O)CCCCCCC` [diC8-PI(4,5)P2] was run?
Answer: 2400 ± 230 nM

Question: What about the EC50 (TRPM4 (TRPM4b) [2]) of the same compound?
Answer: 1440 ± 200 nM
